Experimental data as given in patent US5185251A, “Microbial transformation of a substituted pyridinone using actinoplanacete sp. MA 6559” (Merck & Co., Inc., priority 1991, dated 1993).
pIC50: −log10 of the molar value.

Target: T1, recombinant HIV reverse transcriptase (HIV RTR) (Human immunodeficiency virus type 1 group M subtype B, UniProt P04585)
T1 construct: recombinant HIV reverse transcriptase
Test: Reverse Transcriptase Assay (incorporation of tritiated deoxyguanosine monophosphate into acid-precipitable cDNA)
Type: biochemical
Details: for inhibition of incorporation of deoxyguanosine monophosphate by HIV reverse transcriptase (in words): at the Km values of dGTP and poly r(C).oligo d(G)12-18; for pIC50: poly r(C).oligo d(G)12-18 template, dGTP at about Km, 37° C., 45 minutes, read-out: calculated IC50
Procedure: The assay measures the incorporation of tritiated deoxyguanosine monophosphate by recombinant HIV reverse transcriptase (HIV RTR) (or other RT) into acid-precipitable cDNA at the Km values of dGTP and poly r(C).oligo d(G)12-18.
Thirty uL of a reaction mixture containing equal volumes of: 500 mM Tris.HCl (pH 8.2), 300 mM MgCl2, 1200 mM KCl, 10 mM DTT, 400 μg/mL poly r(c).oligo d(G) [prepared by dissolving 1.5 mg (25 U) poly r(C).oligo d(G) in 1.5 ml sterile distilled H2 O and diluting to 400 μg/ml], 0.1 μCi/μl [^3 H] dGTP, 160 μM dGTP, was added to 10 μl sterile distilled H2 O, 2.5 μl of potential inhibitor. Ten μL of 3.2 nM purified HIV RTR were added to start the reaction. The mixture was incubated at 37° C. for 45 minutes.
After incubation was complete, the tubes were cooled in ice for 5 minutes. Ice-cold 13% TCA containing 10 mM NaPPi (200 μl) was added and the mixture incubated on ice for 30 minutes. The precipitated cDNA was removed by filtration using presoaked glass filters [TCA, NaPPi ]. The precipitate was then washed with 1N HCl, 10 mM NaPPi. The filter discs were then counted in a Packard scintillation counter.
Under these conditions [dGTP] and poly r(C).oligo d(G)12-18 each are approximately equal to the appropriate Km value. Approximately 5-6,000 cpm of [^3 H] GMP are incorporated into acid-precipitable material. The RT reaction is concentration- and time-dependent.

Compound | inhibition of incorporation of deoxyguanosine monophosphate by HIV reverse transcriptase (in words) | pIC50
Cc1[nH]c(=O)c(CCc2nc3ccccc3o2)cc1C(C)O (racemic) [Compound (I), (+/-)-3-[2-(benzoxazol-2-yl)ethyl]-5-(1-hydroxyethyl)-6-methyl-2(1H)-pyridinone] | inhibit this incorporation | ~4.73
CCc1cc(CCc2nc3ccccc3o2)c(=O)[nH]c1CO [Compound (II), 3-[2-(benzoxazol-2-yl)ethyl]-5-ethyl-6-hydroxymethyl-2(1H)-pyridinone] | inhibit this incorporation | ~7.36
